Measurements taken from PMC11302339, “A series of pyrimidine-based antifungals with anti-mold activity disrupt ER function in Aspergillus fumigatus” (Microbiology Spectrum, 2024).
In brackets after ≈: the same amount, converted by molar mass.

Tests used:
[1] = test system: C. glabrata; test: MIC testing (CLSI broth dilution); assay type: cell-based; settings: Nakaseomyces glabratus; strain KK2001; CLSI conditions
Protocol: (§1) MICs were determined using Clinical and Laboratory Standards Institute guidelines ([48], [49]). All yeasts were cultured overnight in 3 mL YPD at 30°C, then washed twice in sterile phosphate-buffered saline (PBS). Twofold serial dilutions of each drug were prepared in RMPI + MOPS, then 1 × 10^3 cells were added per well. For mold species, wells were inoculated with 1.25 × 10^3 conidia per well. Plates were incubated at 37°C for 24 (Candida spp. and S. cerevisiae), 48 (Aspergillus spp., M. circinelloides, S. apiospermum, and L. prolificans), or 72 (C. neoformans and F. oxysporum) hours. S. cerevisiae BY4743 MICs were tested in YPD due to nutritional requirements of this strain. Each assay was performed in technical duplicate in at least two independent experiments performed on different days.

[2] = test system: L. prolificans; test: MIC testing (CLSI broth dilution); assay type: cell-based; settings: Lomentospora prolificans; strain 90853; CLSI conditions
Protocol: as §1

[3] = test system: M. circinelloides; test: MIC testing (CLSI broth dilution); assay type: cell-based; settings: Mucor circinelloides; strain CBS277.49; CLSI conditions
Protocol: as §1

[4] = test system: Saccharomyces cerevisiae BY4741; test: Generation of resistant isolates (serial passaging); assay type: cell-based; settings: from 1/4 MIC, twofold increases, at least 50 generations
Protocol: Finally, we attempted to generate resistant isolates to understand the rate of resistance and potentially uncover mechanism of action. First, to determine spontaneous rates, we performed high-density plating (~2 × 10^9 cells) of C. neoformans on YPD plates containing 64 µg/mL 1 ([24]). […] Next, we employed serial passaging of both C. neoformans H99 and Saccharomyces cerevisiae BY4741 to evaluate evolved resistance upon exposure to sub-MIC concentrations. Yeast cells were grown in a 96-well format in the presence of 1/4 MIC 1, then cultures were passaged to fresh media containing a twofold increase in drug concentration. At each passage, the inoculum was diluted ~1:100 to allow ~10 generations of growth for a total of at least 50 generations over the course of the experiment.

[5] = test system: C. neoformans ∆ire1; test: Susceptibility of ∆ire1 mutant on YPD plates; assay type: cell-based, Cryptococcus neoformans; settings: YPD with 4 or 16 µg/mL 1, 30 °C, 72 hours
Protocol: To determine interactions of 1 with ER stress in Cryptococcus neoformans, an overnight culture of H99 was diluted to 1 × 10^6 CFU/mL, then three 10-fold dilutions were prepared. Three-microliter spots of each cell dilution were plated in triplicate on YPD containing DMSO or 4 µg/mL 1 in combination with DTT, brefeldin A, or tunicamycin. Plates were incubated at 37°C for 72 hours. Images are representative of two independent experiments performed in biological triplicate.
Supplemental Figure 3. 1 interacts with ER stress in C. neoformans but activity is not dependent on Ire1. A) Serial dilutions of C. neoformans H99 on YPD with DMSO or 4 µg/mL 1 combined with ER stresses Brefeldin A (BfA), DTT, or Tunicamycin (Tun). Plates were incubated at 37 °C for 72 hours. Representative images of two independent experiments with three biological replicates each. B) Serial dilutions of C. neoformans H99 wild type and ∆ire1 mutant on YPD containing 4 µg/mL 1, 16 µg/mL 1 or DMSO incubated at 30 °C for 72 hours.
Representative images of two independent experiments with three biological replicates each.
(1 picture or pasted object on this page, not shown here)

[6] = test system: sheep red blood cells; test: Hemolysis assay; assay type: cell-based; settings: 2 hours at RT
Protocol: Hemolysis assays were performed with defibrinated sheep’s blood (Lampire, Cat # 7239001). Blood was washed three times with PBS then resuspended to ~50% hematocrit in PBS. Drugs were diluted to generate a twofold dilution series in 200 µL PBS with equal DMSO concentration across the series, then red blood cells were added for a final concentration of 2% hematocrit. Cells were incubated at RT for 2 hours in a v-bottom microtiter plate; then, plates were spun down; and the supernatant was transferred to a flat-bottomed microtiter plate for absorbance measurement at 570 nm. Drugs were tested in technical triplicate in at least two independent assays performed on different lots of blood.

## OC1CC(c2cc(N3CCC(CCc4ccccc4)CC3)ncn2)C1 (stereo not shown) [compound 1]
[1]
  MIC: 64 µg/mL (≈ 190 µM)
[2]
  MIC: 8 µg/mL (≈ 23.7 µM)
[3]
  MIC: 16 µg/mL (≈ 47.4 µM)
[4]
  evolved resistance, serial passaging: did not recover stable resistance
[5]
  susceptibility of ∆ire1 mutant vs wild type: did not show increased susceptibility
[6]; 2% hematocrit
  LD50 (hemolysis): 350 µg/mL
[6]; up to 128 µg/mL
  hemolysis of red blood cells: did not observe hemolysis
